The conditions of series [1]: 101.33 kPa, Liquid, Vibrating tube method.
Series [2] is described as follows: activity coefficient (dimensionless); of the first substance listed, at infinite dilution; xn = mol fraction of the nth substance listed. The settings on record: 101 kPa, Liquid, Chromatography, x1 = 0.

± gives the expanded uncertainty stated by the source.

In general, mass density refers to the mass of a sample divided by its volume. `CCCC[N+]1(C)CCOCC1.N#C[C-](C#N)C#N` [4-butyl-4-methylmorpholinium tricyanomethanide]: the mass density is given as 1073.6 ± 2.2 kg/m3 in series [1] (288.15 K); 1067.03 ± 2.2 kg/m3 in series [1] (298.15 K); 1060.79 ± 2.2 kg/m3 in series [1] (308.15 K); 1054.69 ± 2.2 kg/m3 in series [1] (318.15 K); 1048.61 ± 2.1 kg/m3 in series [1] (328.15 K); 1042.61 ± 2.1 kg/m3 in series [1] (338.15 K). The mass density in series [1] (348.15 K) is on record as 1036.67 ± 2.1 kg/m3; in series [1] (358.15 K), 1030.77 ± 2.1 kg/m3; in series [1] (368.15 K) it was 1024.3 ± 2.1 kg/m3.

With `CCC(C)O` (centres undefined) [butan-2-ol] + CCCC[N+]1(C)CCOCC1.N#C[C-](C#N)C#N, the activity coefficient came out at 2.05 ± 0.14 in series [2] (318.15 K); 1.93 ± 0.13 in series [2] (328.15 K); 1.81 ± 0.12 in series [2] (338.15 K); 1.71 ± 0.11 in series [2] (348.15 K); 1.64 ± 0.11 in series [2] (358.15 K); 1.58 ± 0.1 in series [2] (368.15 K).

On to `C=CCCCCCCCC` [1-decene] + CCCC[N+]1(C)CCOCC1.N#C[C-](C#N)C#N, for which the activity coefficient in series [2] (318.15 K) turned out to be 118 ± 8; in series [2] (328.15 K), 110 ± 8; in series [2] (338.15 K), 101 ± 7; in series [2] (348.15 K), 94.5 ± 6.5; in series [2] (358.15 K) it was 87.8 ± 6; in series [2] (368.15 K), 81.4 ± 5.6.

With `C=C(C)c1ccccc1` [(1-methylethenyl)benzene] + CCCC[N+]1(C)CCOCC1.N#C[C-](C#N)C#N, the activity coefficient in series [2] (318.15 K) came to 2.8 ± 0.19; in series [2] (328.15 K) it was 2.89 ± 0.2; in series [2] (338.15 K), 2.99 ± 0.2; in series [2] (348.15 K) it was 3.07 ± 0.21; in series [2] (358.15 K) it was 3.15 ± 0.21; in series [2] (368.15 K), 3.22 ± 0.22.

Take `C=CCCCCCC` [oct-1-ene] + CCCC[N+]1(C)CCOCC1.N#C[C-](C#N)C#N: the activity coefficient in series [2] (318.15 K) came to 52.7 ± 3.6; in series [2] (328.15 K) it was 49.1 ± 3.4; in series [2] (338.15 K), 45.7 ± 3.1; in series [2] (348.15 K), 43 ± 2.9; in series [2] (358.15 K), 40.6 ± 2.8; in series [2] (368.15 K) it was 38.1 ± 2.6.

Take `CCOC(C)(C)C` [2-ethoxy-2-methylpropane] + CCCC[N+]1(C)CCOCC1.N#C[C-](C#N)C#N: the activity coefficient in series [2] (318.15 K) amounted to 16.8 ± 1.1; in series [2] (328.15 K), 16.2 ± 1.1; in series [2] (338.15 K), 15.6 ± 1.1; in series [2] (348.15 K) it was 15.3 ± 1; in series [2] (358.15 K), 14.9 ± 1; in series [2] (368.15 K) it was 14.6 ± 1.

These data come from the NIST ThermoML archive (doi:10.1016/j.jct.2013.08.030).
